Our source for the inhibition and IC50 values is patent publication US5965570A, “Tricyclic piperidinyl compounds useful as inhibitors of farnesyl-protein transferase” (Schering Corporation, priority 1997, dated 1999).

This experiment has as its target T1, farnesyl protein transferase (FPT) (Rattus norvegicus, UniProt Q02293+Q04631).
T1 construct: partially purified rat brain farnesyl protein transferase (FPT); from tissue; host or cells: rat brain
Nature of the experiment: FPT IC50 / FPT inhibition (inhibition of farnesyl protein transferase, in vitro enzyme assay). The class given is biochemical. As to conditions: for IC50: Ras-CVLS farnesylation by partially purified rat brain FPT.

T1 sequence (Q02293 whole entry, one chain of several): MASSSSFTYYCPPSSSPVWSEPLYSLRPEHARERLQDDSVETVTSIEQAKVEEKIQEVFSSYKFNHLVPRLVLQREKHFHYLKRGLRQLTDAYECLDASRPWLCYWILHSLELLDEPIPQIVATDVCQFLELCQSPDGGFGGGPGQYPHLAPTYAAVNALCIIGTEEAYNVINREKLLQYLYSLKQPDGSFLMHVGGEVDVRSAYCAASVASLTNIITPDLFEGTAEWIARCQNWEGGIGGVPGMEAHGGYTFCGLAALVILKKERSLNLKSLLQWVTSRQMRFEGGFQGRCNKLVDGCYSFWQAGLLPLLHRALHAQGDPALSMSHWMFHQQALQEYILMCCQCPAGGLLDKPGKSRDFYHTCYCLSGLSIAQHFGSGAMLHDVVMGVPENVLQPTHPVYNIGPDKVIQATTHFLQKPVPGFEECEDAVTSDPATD

In general, inhibition refers to the drop in the measured response relative to a control, in per cent. Under “@ 1.1 μM”, `O=C(NCCc1ccccn1)C1CCN(C2c3ccc(Cl)cc3CCc3cc(Br)cnc32)CC1` (stereo not drawn) [Example 6, 1-(3-Bromo-8-chloro-6,11-dihydro-5H-benzo[5,6]cyclohepta[1,2-b]pyridin-11-yl)-N-(2-pyridinylethyl)-4-piperidinecarboxamide] came in with an inhibition at 1.1 µM of 9%.
One may read the IC50 as the concentration needed to halve the response being measured. The low end stands for inhibition by little substance, the high end for a need for much substance. In the case of `O=C(NCc1cccnc1)C1CCCN(C2c3ccc(Cl)cc3CCc3cc(Br)cnc32)C1` (stereo not drawn) [Example 10, 1-(3-Bromo-8-chloro-6,11-dihydro-5H-benzo[5,6]cyclohepta[1,2-b]pyridin-11-yl)-N-(3-pyridinylmethyl)-3-piperidinecarboxamide], the IC50 worked out at 210 nM.
`O=C(NCCCN1CCCC1=O)[C@@H]1CCCN(C2c3ncc(Br)cc3CCc3cc(Cl)cc(Br)c32)C1` (stereo partly drawn) [Example 54, 1-(3,10-Dibromo-8-chloro-6,11-dihydro-5H-benzo[5,6]cyclohepta[1,2-b]pyridin-11-yl)-N-[3-(2-oxo-1-pyrrolidinyl)propyl]-3-piperidinecarboxamide] came in with an IC50 of 1000 nM.
